Experimental data reported in US20260007613A1, “LONG-ACTING LOW-TOXICITY NOVEL CATIONIC LIPID COMPOUNDS AND COMPOSITION THEREOF” (BEIJING YOUCAREKECHUANG PHARMACEUTICAL TECHNOLOGY CO., LTD., priority 2023, published 2026).
Where “and” joins values, the source holds several entries; their conditions need not be identical. Equal entries are not always repeated.

Tests used:
293T cells [1] = experiment: Cell survival rate determination (CCK-8); assay type: cell-based
In short: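 293T cells plated at 10,000/well (96-well), adhered overnight, then exposed 24 h to Fluc-mRNA LNP (cationic:neutral:structured:PEG-lipid 49:10:39.5:1.5) or Lipofectamine 3000. Viability by CCK-8, 1 h incubation, absorbance at 450 nm.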

[2] = Particle size and polydispersity index (PDI) of lipid nanoparticles by dynamic light scattering; assay type: physicochemical; conditions: LNP formulation prepared from the cationic lipid, 25° C.
Procedure: The particle size and polydispersity index (PDI) were determined by dynamic light scattering using Malvern laser particle size analyzer.
10 μL of the liposome solution was weighed, diluted to 1 mL with RNase-free deionized water, and added to the sample pool. Each sample was measured in triplicate. The measurement conditions were: […] scattering angle, and 25° C.

293T cells [3] = experiment: Fluorescent detection of Fluc-mRNA (cell transfection efficiency of LNP formulations); assay type: cell-based
In short: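 293T cells were seeded at 10,000/well and cultured overnight, then given LNP carrying […] Fluc-mRNA (cationic:neutral:structured:polymer-conjugated lipid 49:10:39.5:1.5 molar) for 24 h. Luminescence was developed with […] and imaged on IVIS.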

female BALB/C mice = experiment: Live imaging in mice: protein expression of Fluc-mRNA delivered by LNP formulations; assay type: in vivo; conditions: for average radiation intensity, times that of ALC-0315: comparator ALC-0315; for average radiation intensity, times that of HHMA: comparator HHMA; for average radiation intensity, times that of SM-102: comparator SM-102; for expression of mRNA in mice, times that of YK-302: comparator YK-302; for expression amount, times that of YK-309: comparator YK-309; for expression amount, times that of YK-313: comparator YK-313; for expression amount, times that of YK-321: comparator YK-321; for average radiation intensity, times that of compound 21: comparator compound 21; for average radiation intensity, times that of compound 23: comparator compound 23
In short: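 Female BALB/C mice (4-6 weeks, 17-19 g) received LNP-formulated Fluc-mRNA […] intramuscularly. At 6 h, 24 h, 48 h and 7 d, luciferase substrate given intraperitoneally, and after 5 min average radiance measured by IVIS whole-body imaging.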

CCCCCCCCC(CCCCCCCC)COC(=O)CCCCCN(CCCCCC(=O)OCC(CCCCCCCC)CCCCCCCC)C[C@H](O)CN(CC)CCO [YK-312, (S)-bis(2-octyldecyl)-6,6′-((2-hydroxy-3-((2-hydroxyethyl)(ethyl)amino)propyl)azanediyl)dihexanoate]
Cell survival rate (%) (293T cells [1]; LNP formulation of Fluc-mRNA, 24 hours, CCK-8): 76.96%
cell survival rate higher than ALC-0315 (293T cells [1]; difference of survival rates, comparator ALC-0315): 25.93%
cell survival rate higher than HHMA (293T cells [1]; difference of survival rates, comparator HHMA): 10.49%
cell survival rate higher than Lipofectamine 3000 (293T cells [1]; difference of survival rates, comparator Lipofectamine 3000): 51.95%
cell survival rate higher than SM-102 (293T cells [1]; difference of survival rates, comparator SM-102): 7.51%
cell survival rate higher than YK-301 (293T cells [1]; difference of survival rates, comparator YK-301): 24.00%
cell survival rate higher than YK-302 (293T cells [1]; difference of survival rates, comparator YK-302): 60.53%
cell survival rate higher than YK-303 (293T cells [1]; difference of survival rates, comparator YK-303): 13.64%
cell survival rate higher than YK-304 (293T cells [1]; difference of survival rates, comparator YK-304): 42.80%
cell survival rate higher than YK-306 (293T cells [1]; difference of survival rates, comparator YK-306): 34.77%
cell survival rate higher than YK-307 (293T cells [1]; difference of survival rates, comparator YK-307): 15.82%
cell survival rate higher than YK-308 (293T cells [1]; difference of survival rates, comparator YK-308): 5.97%
cell survival rate higher than YK-309 (293T cells [1]; difference of survival rates, comparator YK-309): 45.35%
cell survival rate higher than YK-311 (293T cells [1]; difference of survival rates, comparator YK-311): 6.90%
cell survival rate higher than YK-313 (293T cells [1]; difference of survival rates, comparator YK-313): 8.03%
cell survival rate higher than YK-314 (293T cells [1]; difference of survival rates, comparator YK-314): 9.08%
cell survival rate higher than YK-315 (293T cells [1]; difference of survival rates, comparator YK-315): 5.68%
cell survival rate higher than YK-316 (293T cells [1]; difference of survival rates, comparator YK-316): 6.43%
cell survival rate higher than YK-317 (293T cells [1]; difference of survival rates, comparator YK-317): 17.78%
cell survival rate higher than YK-320 (293T cells [1]; difference of survival rates, comparator YK-320): 5.89%
cell survival rate higher than YK-321 (293T cells [1]; difference of survival rates, comparator YK-321): 4.62%
cell survival rate higher than compound 21 (293T cells [1]; difference of survival rates, comparator compound 21): 6.75%
cell survival rate higher than compound 23 (293T cells [1]; difference of survival rates, comparator compound 23): 5.46%
PDI (%) [2]: 33.4%
Particle size (nm) [2]: 184 nm
Relative light unit (RLU) (293T cells [3]; LNP formulation of Fluc-mRNA, 96-well plate, 24 hours): 20148450 RLU
Multiples (YK-305) (293T cells [3]; RLU of YK-305 / RLU of the lipid of the line): 1.36
Multiples (YK-310) (293T cells [3]; RLU of YK-310 / RLU of the lipid of the line): 1.28
Multiples (YK-312) (293T cells [3]; RLU of YK-312 / RLU of the lipid of the line): 1.00
Multiples (YK-318) (293T cells [3]; RLU of YK-318 / RLU of the lipid of the line, Tables 5, 7, 11): 0.56
Multiples (YK-319) (293T cells [3]; RLU of YK-319 / RLU of the lipid of the line, Tables 5, 7, 11): 1.21
Ratio relative to SM-102 (293T cells [3]; RLU of the lipid / RLU of SM-102, times that of SM-102): 12.56
cell transfection efficiency, times that of ALC-0315 (293T cells [3]; comparator ALC-0315): 9.91 times
cell transfection efficiency, times that of HHMA (293T cells [3]; comparator HHMA): 10.04 times
cell transfection efficiency, times that of Lipofectamine 3000 (293T cells [3]; comparator Lipofectamine 3000): 16.99 times
cell transfection efficiency, times that of YK-009 (293T cells [3]; comparator YK-009): 3.94 times
cell transfection efficiency, times that of YK-301 (293T cells [3]; comparator YK-301): 23.92 times
cell transfection efficiency, times that of YK-302 (293T cells [3]; comparator YK-302): 725.34 times
cell transfection efficiency, times that of YK-303 (293T cells [3]; comparator YK-303): 32.17 times
cell transfection efficiency, times that of YK-304 (293T cells [3]; comparator YK-304): ~900 times and 974.01 times
cell transfection efficiency, times that of YK-306 (293T cells [3]; comparator YK-306): 9.17 times
cell transfection efficiency, times that of YK-307 (293T cells [3]; comparator YK-307): 4.42 times
cell transfection efficiency, times that of YK-308 (293T cells [3]; comparator YK-308): 4.00 times
cell transfection efficiency, times that of YK-309 (293T cells [3]; comparator YK-309): ~160 times and 160.71 times
cell transfection efficiency, times that of YK-311 (293T cells [3]; comparator YK-311): 10.26 times
cell transfection efficiency, times that of YK-313 (293T cells [3]; comparator YK-313): 23.25 times
cell transfection efficiency, times that of YK-314 (293T cells [3]; comparator YK-314): 36.81 times
cell transfection efficiency, times that of YK-315 (293T cells [3]; comparator YK-315): 12.69 times
cell transfection efficiency, times that of YK-316 (293T cells [3]; comparator YK-316): 4.19 times
cell transfection efficiency, times that of YK-317 (293T cells [3]; comparator YK-317): 5.59 times
cell transfection efficiency, times that of YK-320 (293T cells [3]; comparator YK-320): 7.45 times
cell transfection efficiency, times that of YK-321 (293T cells [3]; comparator YK-321): 14.36 times
cell transfection efficiency, times that of compound 21 (293T cells [3]; comparator compound 21): 14.07 times
cell transfection efficiency, times that of compound 23 (293T cells [3]; comparator compound 23): 14.86 times
average radiation intensity, times that of ALC-0315 (female BALB/C mice; 6 h): 9.27 times
average radiation intensity, times that of HHMA (female BALB/C mice; 6 h): 12.30 times
average radiation intensity, times that of SM-102 (female BALB/C mice; 6 h): 11.42 times
expression of mRNA in mice, times that of YK-302 (female BALB/C mice; 6 h): 549.37 times
expression amount, times that of YK-309 (female BALB/C mice; 6 h): 121.95 times
expression amount, times that of YK-313 (female BALB/C mice; 6 h): 18.11 times
expression amount, times that of YK-321 (female BALB/C mice; 6 h): 15.54 times
average radiation intensity, times that of compound 21 (female BALB/C mice; 6 h): 13.12 times
average radiation intensity, times that of compound 23 (female BALB/C mice; 6 h): 13.59 times
average radiation intensity (female BALB/C mice; 6 h after intramuscular injection): 8009850
average radiation intensity, times that of ALC-0315 (female BALB/C mice; 24 h): 11.96 times
average radiation intensity, times that of HHMA (female BALB/C mice; 24 h): 19.00 times
average radiation intensity, times that of SM-102 (female BALB/C mice; 24 h): 18.91 times
expression of mRNA in mice, times that of YK-302 (female BALB/C mice; 24 h): 575.97 times
expression amount, times that of YK-309 (female BALB/C mice; 24 h): 135.46 times
expression amount, times that of YK-313 (female BALB/C mice; 24 h): 21.82 times
expression amount, times that of YK-321 (female BALB/C mice; 24 h): 22.51 times
average radiation intensity, times that of compound 21 (female BALB/C mice; 24 h): 20.74 times
average radiation intensity, times that of compound 23 (female BALB/C mice; 24 h): 21.80 times
average radiation intensity (female BALB/C mice; 24 h after intramuscular injection): 2278520
average radiation intensity, times that of ALC-0315 (female BALB/C mice; 48 h): 20.43 times
average radiation intensity, times that of HHMA (female BALB/C mice; 48 h): 24.98 times
average radiation intensity, times that of SM-102 (female BALB/C mice; 48 h): 24.98 times
expression of mRNA in mice, times that of YK-302 (female BALB/C mice; 48 h): 793.37 times
expression amount, times that of YK-309 (female BALB/C mice; 48 h): 124.13 times
expression amount, times that of YK-313 (female BALB/C mice; 48 h): 31.82 times
expression amount, times that of YK-321 (female BALB/C mice; 48 h): 22.24 times
average radiation intensity, times that of compound 21 (female BALB/C mice; 48 h): 26.25 times
average radiation intensity, times that of compound 23 (female BALB/C mice; 48 h): 24.55 times
average radiation intensity (female BALB/C mice; 48 h after intramuscular injection): 813200
average radiation intensity, times that of ALC-0315 (female BALB/C mice; 7 d): 14.97 times
average radiation intensity, times that of HHMA (female BALB/C mice; 7 d): 17.97 times
average radiation intensity, times that of SM-102 (female BALB/C mice; 7 d): 15.93 times
expression of mRNA in mice, times that of YK-302 (female BALB/C mice; 7 d): 274.74 times
expression amount, times that of YK-309 (female BALB/C mice; 7 d): 84.00 times
expression amount, times that of YK-313 (female BALB/C mice; 7 d): 32.61 times
expression amount, times that of YK-321 (female BALB/C mice; 7 d): 16.02 times
average radiation intensity, times that of compound 21 (female BALB/C mice; 7 d): 16.37 times
average radiation intensity, times that of compound 23 (female BALB/C mice; 7 d): 16.91 times
average radiation intensity (female BALB/C mice; 7 d after intramuscular injection): 105500
